Active and inactive are the calls of the source. The rule behind the calls is not given here.
What was measured:
[1] = target: Phosphatidylinositol 4,5-bisphosphate 3-kinase catalytic subunit beta isoform (Homo sapiens, UniProt P42338); assay: Inhibition of PI3Kbeta (unknown origin) using PIP2 as substrate incubated for 1 hrs in presence of ATP by ADP-Glo kinase assay
HL-60 = assay: Antiproliferative activity against human HL-60 cells incubated for 48 hrs by resazurin dye based fluorescence micro plate reader analysis; type: functional, cell-based; conditions: HL-60, 48 h
[2] = Stability in mouse liver microsomes assessed as compound remaining at […] preincubated for 5 mins followed by NADPH addition and measured after 15 mins by LC-MS/MS analysis; type: ADME, Microsome; conditions: time 20 min, read-out: Stability
CYP2B6 = CYP2B6 (Homo sapiens, UniProt P20813); assay: Inhibition of CYP2B6 in human liver microsomes using bupropion as substrate at 10 uM in presence of NADPH regenerating system by LC-MS/MS analysis relative to control; type: ADME, Microsome; conditions: probe bupropion
CYP3A4 = CYP3A4 (Homo sapiens, UniProt P08684); assay: Inhibition of CYP3A4 in human liver microsomes using bufuralol as substrate at 10 uM in presence of NADPH regenerating system by LC-MS/MS analysis relative to control; type: ADME, Microsome; conditions: probe bufuralol
JeKo-1 [3] = assay: Induction of apoptosis in human JeKo-1 cells assessed as viable cells at 0.25 uM incubated for 48 hrs by Annexin-V/FITC and PI staining based flow cytometric analysis (reference value: 94.1%); type: functional; conditions: read-out: Activity
Histone deacetylase 7 = Histone deacetylase 7 (Homo sapiens, UniProt Q8WUI4); assay: Inhibition of HDAC7 (unknown origin) using Boc-Lys(acetyl)-AMC as substrate preincubated for 1 hrs followed by substrate addition and measured after 2 hrs by spectrophotometer based fluorometric assay
[4] = Stability in human liver microsomes assessed as compound remaining at […] preincubated for 5 mins followed by NADPH addition and measured after 15 mins by LC-MS/MS analysis; type: ADME, Microsome; conditions: time 20 min, read-out: Stability
[5] = Stability in human liver microsomes assessed as compound remaining at […] preincubated for 5 mins followed by NADPH addition and measured after 45 mins by LC-MS/MS analysis; type: ADME, Microsome; conditions: time 50 min, read-out: Stability
[6] = MRT (0 to infinity) in ICR mouse at 1 mg/kg, iv measured after 24 hrs by LC-MS/MS analysis; type: ADME, organism-based; conditions: in vivo
JeKo-1 [7] = assay: Induction of apoptosis in human JeKo-1 cells assessed as viable cells at 0.5 uM incubated for 48 hrs by Annexin-V/FITC and PI staining based flow cytometric analysis (reference value: 94.1%); type: functional; conditions: read-out: Activity
JeKo-1 [8] = assay: Induction of apoptosis in human JeKo-1 cells assessed as necrotic cells at 0.5 uM incubated for 48 hrs by Annexin-V/FITC and PI staining based flow cytometric analysis (reference value: 1.05%); type: functional
[9] = Inhibition of PI3K/AKT/mTOR signaling in human JeKo-1 cells assessed as decrease in AKT phosphorylation at S473 residue at 0.25 uM incubated for 24 hrs by Western blot analysis; type: cell-based
hERG = hERG (Homo sapiens, UniProt Q12809); assay: Inhibition of hERG transfected in CHO cells at 30 uM by manual patch-clamp assay relative to control; type: toxicity, cell-based; conditions: CHO cells transfected with hERG
JeKo-1 [10] = assay: Induction of apoptosis in human JeKo-1 cells assessed as early apoptotic cells at 0.25 uM incubated for 48 hrs by Annexin-V/FITC and PI staining based flow cytometric analysis (reference value: […]); type: functional
JeKo-1 [11] = assay: Induction of apoptosis in human JeKo-1 cells assessed as late apoptotic cells at 1 uM incubated for 48 hrs by Annexin-V/FITC and PI staining based flow cytometric analysis (reference value: 3.66%); type: functional
[12] = Stability in mouse liver microsomes assessed as half-life at […] preincubated for 5 mins followed by NADPH addition and measured upto 45 mins by LC-MS/MS analysis; type: ADME, Microsome; conditions: time < 50 min
[13] = target: Phosphatidylinositol 4,5-bisphosphate 3-kinase catalytic subunit delta isoform (Homo sapiens, UniProt O00329); assay: Inhibition of PI3Kdelta (unknown origin) using PIP2 as substrate incubated for 1 hrs in presence of ATP by ADP-Glo kinase assay
JeKo-1 [14] = assay: Potency index, ratio of CI994 IC50 to test compound IC50 for antiproliferative activity against human JeKo-1 cells incubated for 48 hrs by resazurin based fluorescence microplate reader analysis; type: functional
[15] = Stability in rat liver microsomes assessed as compound remaining at 0.5 mM preincubated for 5 mins followed by NADPH addition and measured immediately by LC-MS/MS analysis; type: ADME, Microsome; conditions: read-out: Stability
[16] = Clearance in ICR mouse at 1 mg/kg, iv measured after 24 hrs by LC-MS/MS analysis; type: ADME, organism-based; conditions: in vivo
JeKo-1 [17] = assay: Induction of apoptosis in human JeKo-1 cells assessed as necrotic cells at 0.25 uM incubated for 48 hrs by Annexin-V/FITC and PI staining based flow cytometric analysis (reference value: 1.05%); type: functional
[18] = Stability in mouse liver microsomes assessed as compound remaining at […] preincubated for 5 mins followed by NADPH addition and measured after 5 mins by LC-MS/MS analysis; type: ADME, Microsome; conditions: time 10 min, read-out: Stability
[19] = Stability in human liver microsomes assessed as compound remaining at […] preincubated for 5 mins followed by NADPH addition and measured after 5 mins by LC-MS/MS analysis; type: ADME, Microsome; conditions: time 10 min, read-out: Stability
JeKo-1 [20] = assay: Induction of apoptosis in human JeKo-1 cells assessed as late apoptotic cells at 0.25 uM incubated for 48 hrs by Annexin-V/FITC and PI staining based flow cytometric analysis (reference value: 3.66%); type: functional
JeKo-1 [21] = assay: Induction of apoptosis in human JeKo-1 cells assessed as viable cells at 1 uM incubated for 48 hrs by Annexin-V/FITC and PI staining based flow cytometric analysis (reference value: 94.1%); type: functional; conditions: read-out: Activity
Histone deacetylase 4 = Histone deacetylase 4 (Homo sapiens, UniProt P56524); assay: Inhibition of HDAC4 (unknown origin) using Boc-Lys(acetyl)-AMC as substrate preincubated for 1 hrs followed by substrate addition and measured after 2 hrs by spectrophotometer based fluorometric assay
[22] = target: Phosphatidylinositol 4,5-bisphosphate 3-kinase catalytic subunit alpha isoform (Homo sapiens, UniProt P42336); assay: Inhibition of PI3Kalpha (unknown origin) using PIP2 as substrate incubated for 1 hrs in presence of ATP by ADP-Glo kinase assay
JeKo-1 [23] = assay: Antiproliferative activity against human JeKo-1 cells incubated for 48 hrs by resazurin dye based fluorescence micro plate reader analysis; type: functional, cell-based; conditions: JeKo-1, 48 h
[24] = C0 in ICR mouse at 1 mg/kg, iv measured after 24 hrs by LC-MS/MS analysis; type: ADME, organism-based; conditions: in vivo
[25] = Stability in mouse liver microsomes assessed as compound remaining at […] preincubated for 5 mins followed by NADPH addition and measured after 45 mins by LC-MS/MS analysis; type: ADME, Microsome; conditions: time 50 min, read-out: Stability
JeKo-1 [26] = assay: Effect on total AKT protein level in human JeKo-1 cells at 0.25 uM incubated for 24 hrs by Western blot analysis; type: functional, cell-based
JeKo-1 [27] = assay: Induction of apoptosis in human JeKo-1 cells assessed as late apoptotic cells at 0.5 uM incubated for 48 hrs by Annexin-V/FITC and PI staining based flow cytometric analysis (reference value: 3.66%); type: functional

Chain of Histone deacetylase 4 (P56524 whole entry, canonical isoform): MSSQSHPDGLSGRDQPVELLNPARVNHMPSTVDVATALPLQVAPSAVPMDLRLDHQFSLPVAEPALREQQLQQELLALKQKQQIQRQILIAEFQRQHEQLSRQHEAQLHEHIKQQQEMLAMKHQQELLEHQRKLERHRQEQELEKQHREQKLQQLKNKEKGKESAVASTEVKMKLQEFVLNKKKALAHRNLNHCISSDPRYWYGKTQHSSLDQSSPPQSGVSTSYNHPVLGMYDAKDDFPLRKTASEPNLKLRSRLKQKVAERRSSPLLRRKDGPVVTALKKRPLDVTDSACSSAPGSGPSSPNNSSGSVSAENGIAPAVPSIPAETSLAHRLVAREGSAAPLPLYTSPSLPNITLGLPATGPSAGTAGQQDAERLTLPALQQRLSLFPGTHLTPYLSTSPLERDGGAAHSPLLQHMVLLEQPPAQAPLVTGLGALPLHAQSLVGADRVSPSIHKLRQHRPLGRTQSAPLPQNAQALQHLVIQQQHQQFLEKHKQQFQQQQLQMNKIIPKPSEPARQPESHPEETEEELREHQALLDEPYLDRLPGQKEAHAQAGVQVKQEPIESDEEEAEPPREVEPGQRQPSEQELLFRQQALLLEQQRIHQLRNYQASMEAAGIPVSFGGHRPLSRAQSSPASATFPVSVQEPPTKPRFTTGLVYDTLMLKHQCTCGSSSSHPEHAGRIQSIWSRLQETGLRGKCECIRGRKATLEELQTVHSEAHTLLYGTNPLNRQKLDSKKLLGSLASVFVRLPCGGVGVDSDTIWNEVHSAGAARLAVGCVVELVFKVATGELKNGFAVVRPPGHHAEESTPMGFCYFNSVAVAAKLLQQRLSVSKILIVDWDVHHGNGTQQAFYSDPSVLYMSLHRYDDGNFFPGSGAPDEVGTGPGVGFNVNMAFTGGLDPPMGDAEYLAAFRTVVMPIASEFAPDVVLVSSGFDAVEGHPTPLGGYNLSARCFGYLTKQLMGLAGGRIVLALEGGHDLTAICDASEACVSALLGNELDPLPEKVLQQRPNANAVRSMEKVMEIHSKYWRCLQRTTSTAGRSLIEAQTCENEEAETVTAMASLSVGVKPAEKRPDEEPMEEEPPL
Chain of Phosphatidylinositol 4,5-bisphosphate 3-kinase catalytic subunit beta isoform (P42338 whole entry, canonical isoform): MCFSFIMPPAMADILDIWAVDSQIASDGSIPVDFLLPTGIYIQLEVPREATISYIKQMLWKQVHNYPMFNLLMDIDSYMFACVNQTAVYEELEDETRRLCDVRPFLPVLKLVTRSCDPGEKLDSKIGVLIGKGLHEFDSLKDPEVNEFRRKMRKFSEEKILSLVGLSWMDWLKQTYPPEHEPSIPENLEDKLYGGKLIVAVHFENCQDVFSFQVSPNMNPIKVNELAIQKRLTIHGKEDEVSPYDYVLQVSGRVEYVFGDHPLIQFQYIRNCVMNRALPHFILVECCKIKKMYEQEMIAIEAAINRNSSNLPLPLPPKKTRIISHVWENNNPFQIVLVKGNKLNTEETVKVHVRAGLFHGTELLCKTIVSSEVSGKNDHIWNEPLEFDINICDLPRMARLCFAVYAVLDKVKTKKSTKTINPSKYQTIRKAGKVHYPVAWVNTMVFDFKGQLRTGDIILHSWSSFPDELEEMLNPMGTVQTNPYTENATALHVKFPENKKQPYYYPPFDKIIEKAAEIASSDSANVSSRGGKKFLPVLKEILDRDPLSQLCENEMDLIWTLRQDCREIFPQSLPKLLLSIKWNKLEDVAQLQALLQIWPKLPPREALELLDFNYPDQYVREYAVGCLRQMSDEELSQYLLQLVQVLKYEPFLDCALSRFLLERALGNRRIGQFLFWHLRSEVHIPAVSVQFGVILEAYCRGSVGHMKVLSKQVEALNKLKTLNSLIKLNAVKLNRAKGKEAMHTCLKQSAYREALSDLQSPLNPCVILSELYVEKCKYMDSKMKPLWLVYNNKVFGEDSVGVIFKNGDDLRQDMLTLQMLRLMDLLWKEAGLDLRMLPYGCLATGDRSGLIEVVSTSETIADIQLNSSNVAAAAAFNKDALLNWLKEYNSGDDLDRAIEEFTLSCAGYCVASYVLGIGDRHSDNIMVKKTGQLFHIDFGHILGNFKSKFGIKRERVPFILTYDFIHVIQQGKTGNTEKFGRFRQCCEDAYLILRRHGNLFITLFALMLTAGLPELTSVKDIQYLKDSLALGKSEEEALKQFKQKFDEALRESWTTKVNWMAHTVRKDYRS
Chain of CYP2B6 (P20813 whole entry): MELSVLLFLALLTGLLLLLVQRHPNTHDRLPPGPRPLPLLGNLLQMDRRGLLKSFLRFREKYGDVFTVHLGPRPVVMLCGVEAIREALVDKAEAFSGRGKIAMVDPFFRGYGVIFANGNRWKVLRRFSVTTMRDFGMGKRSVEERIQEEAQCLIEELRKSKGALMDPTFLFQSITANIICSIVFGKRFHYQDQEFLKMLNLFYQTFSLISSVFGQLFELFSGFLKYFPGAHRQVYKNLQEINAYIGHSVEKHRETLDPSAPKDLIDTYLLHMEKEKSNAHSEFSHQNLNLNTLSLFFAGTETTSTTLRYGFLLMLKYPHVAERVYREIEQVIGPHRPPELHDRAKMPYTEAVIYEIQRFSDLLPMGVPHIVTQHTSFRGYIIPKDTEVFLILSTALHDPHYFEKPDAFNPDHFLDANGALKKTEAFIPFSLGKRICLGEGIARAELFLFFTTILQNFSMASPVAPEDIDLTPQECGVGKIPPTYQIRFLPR
Chain of Phosphatidylinositol 4,5-bisphosphate 3-kinase catalytic subunit alpha isoform (P42336 whole entry, canonical isoform): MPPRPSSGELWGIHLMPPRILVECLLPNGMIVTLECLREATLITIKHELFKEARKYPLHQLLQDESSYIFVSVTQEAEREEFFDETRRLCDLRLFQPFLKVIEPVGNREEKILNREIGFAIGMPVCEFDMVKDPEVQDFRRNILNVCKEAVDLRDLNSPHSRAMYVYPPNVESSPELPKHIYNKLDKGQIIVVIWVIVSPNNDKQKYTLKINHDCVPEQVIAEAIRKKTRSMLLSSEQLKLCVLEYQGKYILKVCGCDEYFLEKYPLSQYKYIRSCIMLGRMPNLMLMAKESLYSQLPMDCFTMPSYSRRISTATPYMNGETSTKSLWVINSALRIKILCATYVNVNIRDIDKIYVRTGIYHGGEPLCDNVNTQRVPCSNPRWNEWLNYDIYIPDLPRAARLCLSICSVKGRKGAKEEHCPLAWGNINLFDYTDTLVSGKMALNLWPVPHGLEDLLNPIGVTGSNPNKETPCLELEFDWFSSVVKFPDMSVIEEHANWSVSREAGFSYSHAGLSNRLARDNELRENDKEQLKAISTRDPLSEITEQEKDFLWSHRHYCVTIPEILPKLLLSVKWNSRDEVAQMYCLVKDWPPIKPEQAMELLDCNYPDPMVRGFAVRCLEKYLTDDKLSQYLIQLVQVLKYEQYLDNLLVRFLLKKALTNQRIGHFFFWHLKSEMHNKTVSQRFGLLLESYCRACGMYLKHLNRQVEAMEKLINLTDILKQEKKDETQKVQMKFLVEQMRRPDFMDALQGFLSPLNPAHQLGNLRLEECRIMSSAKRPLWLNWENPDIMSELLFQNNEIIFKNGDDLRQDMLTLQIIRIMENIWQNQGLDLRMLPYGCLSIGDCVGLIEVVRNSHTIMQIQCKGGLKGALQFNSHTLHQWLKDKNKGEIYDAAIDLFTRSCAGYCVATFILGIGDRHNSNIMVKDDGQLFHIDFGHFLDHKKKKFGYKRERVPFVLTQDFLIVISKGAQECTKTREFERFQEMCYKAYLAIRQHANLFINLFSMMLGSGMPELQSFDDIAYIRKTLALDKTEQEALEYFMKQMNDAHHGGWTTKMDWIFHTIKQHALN
Chain of CYP3A4 (P08684 whole entry): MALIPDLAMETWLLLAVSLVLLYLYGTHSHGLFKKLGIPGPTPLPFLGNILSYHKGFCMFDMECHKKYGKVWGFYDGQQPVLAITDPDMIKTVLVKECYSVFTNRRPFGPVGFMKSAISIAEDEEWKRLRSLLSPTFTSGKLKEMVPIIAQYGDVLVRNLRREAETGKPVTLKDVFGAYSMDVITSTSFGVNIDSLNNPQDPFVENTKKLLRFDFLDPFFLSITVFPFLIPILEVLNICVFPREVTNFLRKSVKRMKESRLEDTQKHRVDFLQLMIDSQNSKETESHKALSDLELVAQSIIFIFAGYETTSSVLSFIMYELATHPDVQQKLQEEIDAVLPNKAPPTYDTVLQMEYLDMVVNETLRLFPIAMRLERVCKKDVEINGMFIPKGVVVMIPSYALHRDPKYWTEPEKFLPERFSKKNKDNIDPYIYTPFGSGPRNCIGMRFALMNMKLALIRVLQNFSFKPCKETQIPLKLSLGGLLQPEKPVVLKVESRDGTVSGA

With COc1nc(-c2ccc(NC(=O)Nc3ccc(C(=O)NCCCCCC(=O)Nc4ccccc4N)cc3)cc2)nc(N2CCOCC2)n1 the IC50 [1] was 0.0295 µM, the IC50 (HL-60) was 0.9 µM and the remaining at 0.25 h [2] was 65.8%. The inhibition at 10 µM (CYP2B6) was 35.6%, the inhibition at 10 µM (CYP3A4) was 32.5% and the viability at 0.25 µM (JeKo-1 [3]) was 78.5%. For the same molecule, the IC50 (Histone deacetylase 7) was greater than 10 µM, the remaining at 0.25 h [4] was 62.6% and the remaining at 0.75 h [5] was 35.8%. For the same molecule, the MRT inf [6] was 2 h, the viability at 0.5 µM (JeKo-1 [7]) was 48.8% and the Activity (JeKo-1 [8]) was 0.49%. For the same molecule, the inhibition [9] was “Active”, the inhibition at 30 µM (hERG) was 15.2% and the Activity (JeKo-1 [10]) was 5.73%. For the same molecule, the Activity (JeKo-1 [11]) was 70.4%, the half-life [12] was 0.449 h and the IC50 [13] was 0.206 µM. For the same molecule, the “Ratio IC50” value (JeKo-1 [14]) was 2, the remaining at 0 min [15] was 100% and the clearance [16] was 6.02 mL/min/kg. It also gave an Activity (JeKo-1 [17]) of 0.85%, a remaining at 5 min [18] of 94% and a remaining at 5 min [19] of 83.8%. For the same molecule, the Activity (JeKo-1 [20]) was 15.1%, the viability at 1 µM (JeKo-1 [21]) was 3.29% and the IC50 (Histone deacetylase 4) was greater than 10 µM. It also gave an IC50 [22] of 0.0203 µM, an IC50 (JeKo-1 [23]) of 0.5 µM and a C0 at 24 h [24] of 13700 ng/mL. The remaining at 0.75 h [25] was 32.8%, the Activity (JeKo-1 [26]) was “inactive” and the Activity (JeKo-1 [27]) was 32.9%.

From ChEMBL document CHEMBL5634161, “Discovery of benzamide-based PI3K/HDAC dual inhibitors with marked pro-apoptosis activity in lymphoma cells” (Eur J Med Chem, 2023)
